The test system of experiment [1] is phosphorylation of ERK1/2 on Thr202/Tyr204 in mouse primary B cells. As to the kind of experiment: p-ERK1/2 western blot in αIgM + IL-4 stimulated mouse B cells. In kind it is cell-based. How it is done: IPI-3063 is a p110δ selective compound with an IC50 = 0.1 nM in p110δ-specific cell-based assays and cellular IC50 values for the other class I PI3K isoforms are at least 1,000-fold higher (Table 2) ([11]). […] To test the effects of p110γ inhibition, we used AS-252424 compound with a biochemical IC50 = 30 nM for p110γ ([17]). We assessed the effects of both IPI-3063 and IPI-443 on PI3K activity in mouse primary B cells stimulated with αIgM + IL-4, by evaluating phosphorylation of AKT at the serine 473 residue (Figures 1A,C) as well as the phosphorylation of ERK1/2 on Thr202/Tyr204 residues (Figures 1B,C). Cells were treated with a pan-PI3K inhibitor GDC-0941 or with various concentrations of IPI-3063 or IPI-443, or DMSO (0.1%) as the diluent control. Separate cultures were treated with the p110γ inhibitor AS-252424 or its diluent control (0.1% EtOH). MK-2206, an AKT inhibitor, which also reduces AKT S473 phosphorylation, was also used as a control to show ERK1/2 phosphorylation is independent of AKT activity. […]
Analysis was performed on western blots using ImageJ to measure mean fluorescence intensities of each band. Phospho-AKT S473 and phospho-ERK1/2 signal was normalized with actin measurements and fold change was calculated using the stimulated/no drug control.

The next experiment concerns human B cells. As to the kind of experiment: human B cell proliferation (CFSE). To be noted: CD40L + anti-human IgM/IgG + hIL-2 + hIL-21, 120 h. It is filed as cell-based. How it is done: We also tested the effects of these inhibitors on human B cell proliferation stimulated with human CD40L + anti-human IgM/IgG + hIL-2 + hIL-21. We stimulated CFSE-stained human B cells for 120 h in the presence of GDC-0941, IPI-3063, IPI-443, or AS-252424 at various concentrations. […] IPI-443 caused a dose-dependent decrease in proliferation, whereas AS-252424 had no effect.
(A–C) Purified human B cells were pretreated with inhibitors for 30 min, then stimulated with human CD40L + anti-human IgM/IgG + human IL-2 + human IL-21 for 120 h. Concentrations used were 1 nM, 10 nM, 100 nM, and 1 µM for IPI-443, and 0.1, 1, 10, and 100 nM for IPI-3063. AS252424 concentrations were 100 nM, 300 nM, and 1 µM, and GDC-0941 was at 500 nM. Total numbers and percent divided were determined by the number of CD19^+7AAD^−CFSE^lo cells. Samples were collected by time (*P < 0.05, **P < 0.001, ***P < 0.0001 one-way ANOVA with Newman–Keuls multiple comparison test).
Peripheral blood from normal volunteers was obtained through an Institutional Review Board-approved protocol. Peripheral blood mononuclear cells (PBMCs) were first purified from blood by density gradient centrifugation using Ficoll-Paque. […] B-cell purity was increased from 4% to >70% as measured by FACS analysis (FACSCalibur and CellQuest software; BD Biosciences) using anti-CD19 PE conjugated antibody (eBioscience). […]

Each structure is given as a SMILES string. Some results are limits rather than exact numbers.

`O=C1NC(=O)/C(=C/c2ccc(-c3ccc(F)cc3O)o2)S1` [AS-252424, reference compound]: the “effect on p-ERK1/2” value in experiment [1] (αIgM + IL-4) is “no significant effect”. Further, the effect on proliferation result in the experiment on human B cells was “no effect”.
In the case of `CC(C)n1c([C@H](C)Nc2ncnc(N)c2C#N)cc2cccc(-c3ccc(=O)n(C)c3)c2c1=O` [IPI-3063], the “concentration with significant reduction of p-ERK1/2” value in experiment [1] (αIgM + IL-4, 1 h stimulation) came to 10 nM. Also, the “concentration that significantly reduces proliferation” value with human B cells is no less than 1 nM.

Source of the values: paper PMC5491903, “The Selective Phosphoinoside-3-Kinase p110δ Inhibitor IPI-3063 Potently Suppresses B Cell Survival, Proliferation, and Differentiation” (Frontiers in Immunology, 2017).
